In the supplement of paper PMC11208160:

Test: recombinant UMI read abundance after kanamycin selection (control-corrected) (log10(CPM+1)); higher = more efficient recombination; extreme values may be limits of the assay; sequences stand for … in AGTGCAGAGAAAATCGGCCAGTTTTCTCTGCCTGCAGTCCGCATGCCGTGGGACCCCTTGGGTTCTAACCTGTTGCCTAGATTTATGCAGCGGACTGCCTTTCTCCCAAAGTGATAAACCGG…AGGTTGGTTTCACT; site = the 11-nt donor
In short: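 Sequenced counts of recombinant UMIs were turned into CPM, averaged across replicates and scaled with control-derived factors. The reported figure is log10(CPM+1). Those UMIs, each 12 nt long, tagged donor and donor-binding-loop pairs on a plasmid with a promoterless kanamycin gene, screened as a pool in Escherichia coli with IPTG (0.07 mM) plus kanamycin or without selection.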
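Further: IS621 bridge recombinase in Escherichia coli cells against a fixed T5 target plasmid.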

Sequence	recombinant UMI read abundance (log10)
TGTACACCATGGACCGGTTTTCCCGGTAATCCGTATTTGAC (site TGTACCCCTGT)	0
TGTACACCATGGACCGGTTTTCCCGGTAATCCGTATTTGAC (site TGTACGCCTGT)	0
TGTACACCATGGACCGGTTTTCCCGGTAATCCGTATTTGAC (site TGTACTCCTGT)	0
TGTACACCATGGACCGGTTTTCCCGGTAATCCGTATTTGAC (site TGTAGACCTGT)	0
TGTACACCATGGACCGGTTTTCCCGGTAATCCGTATTTGAC (site TGTATACCTGT)	0
TGTACACCATGGACCGGTTTTCCCGGTAATCCGTATTTGAC (site TGTCCACCTGT)	0
TGTACACCATGGACCGGTTTTCCCGGTAATCCGTATTTGAC (site TGTGCACCTGT)	0
TGTACACCATGGACCGGTTTTCCCGGTAATCCGTATTTGAC (site TGTTCACCTGT)	0
TGTACACCATGGACCGGTTTTCCCGGTAATCCGTATTTGAC (site TTTACACCTGT)	0
TGTACACCATGGACCGGTTTTCCCGGTAATCCGTATTTGAG (site TGTACACCTAT)	0.0116
TGTACACCATGGACCGGTTTTCCCGGTAATCCGTATTTGAG (site TGTACACCTCT)	0.00855
TGTACACCATGGACCGGTTTTCCCGGTAATCCGTATTTGAG (site TGTACACCTGT)	0
TGTACACCATGGACCGGTTTTCCCGGTAATCCGTATTTGAG (site TGTACACCTTT)	0.0116
TGTACACCATGGACCGGTTTTCCCGGTAATCCGTATTTGGC (site TGTACACCTGA)	0
TGTACACCATGGACCGGTTTTCCCGGTAATCCGTATTTGGC (site TGTACACCTGC)	0.00484
TGTACACCATGGACCGGTTTTCCCGGTAATCCGTATTTGGC (site TGTACACCTGG)	0
TGTACACCATGGACCGGTTTTCCCGGTAATCCGTATTTGGC (site TGTACACCTGT)	0
TGTACGCCATGGACCGGTTTTCCCGGTAATCCGTATTTGAC (site TGTACACCTGT)	0
TGTACGCCATGGACCGGTTTTCCCGGTAATCCGTATTTGAC (site TGTACCCCTGT)	0
TGTACGCCATGGACCGGTTTTCCCGGTAATCCGTATTTGAC (site TGTACGCCTGT)	0
TGTACGCCATGGACCGGTTTTCCCGGTAATCCGTATTTGAC (site TGTACTCCTGT)	0
TGTACGCCATGGACCGGTTTTCCCGGTAATCCGTATTTGTA (site TGTACGCCTTA)	0.00598
TGTACTGCATGGACCGGTTTTCCCGGTAATCCGTATTTGCC (site TGTACTGCTGG)	0.865
TGTACTTCATGGACCGGTTTTCCCGGTAATCCGTATTTGGT (site TGTACTTCTAC)	1.38
TGTAGTGCATGGACCGGTTTTCCCGGTAATCCGTATTTGCC (site TGTAGTGCTGG)	1.56

Sequence	recombinant UMI read abundance (log10)
TGTAGTGCATGGACCGGTTTTCCCGGTAATCCGTATTTGCT (site TGTAGTGCTAG)	1.16
TGTATCACATGGACCGGTTTTCCCGGTAATCCGTATTTGAA (site TGTATCACTTT)	0.00408
TGTATCTCATGGACCGGTTTTCCCGGTAATCCGTATTTGGG (site TGTATCTCTCC)	0.0516
TGTATGGCATGGACCGGTTTTCCCGGTAATCCGTATTTGAC (site TGTATGGCTGT)	1.25
TGTCACCCATGGACCGGTTTTCCCGGTAATCCGTATTTGGC (site TGTCACCCTGC)	0
TGTCCAACATGGACCGGTTTTCCCGGTAATCCGTATTTGTA (site AGTCCAACTTA)	0.0568
TGTCCAACATGGACCGGTTTTCCCGGTAATCCGTATTTGTA (site CGTCCAACTTA)	0.338
TGTCCAACATGGACCGGTTTTCCCGGTAATCCGTATTTGTA (site GGTCCAACTTA)	0.0289
TGTCCAACATGGACCGGTTTTCCCGGTAATCCGTATTTGTA (site TGTCCAACTTA)	0.208
TGTCCGGCATGGACCGGTTTTCCCGGTAATCCGTATTTGGC (site TGACCGGCTGC)	0
TGTCCGGCATGGACCGGTTTTCCCGGTAATCCGTATTTGGC (site TGCCCGGCTGC)	0
TGTCCGGCATGGACCGGTTTTCCCGGTAATCCGTATTTGGC (site TGGCCGGCTGC)	0
TGTCCGGCATGGACCGGTTTTCCCGGTAATCCGTATTTGGC (site TGTCCGGCTGC)	0.541
TGTCGAGCATGGACCGGTTTTCCCGGTAATCCGTATTTGTA (site TGTCGAGCTTA)	0.92
TGTCTACCATGGACCGGTTTTCCCGGTAATCCGTATTTGCG (site TGTCTACCTCG)	0.0129
TGTCTTGCATGGACCGGTTTTCCCGGTAATCCGTATTTGGG (site TGTCTTGCTCC)	0.016
TGTGAATCATGGACCGGTTTTCCCGGTAATCCGTATTTGTC (site TGTGAATCTGA)	0.782
TGTGCCACATGGACCGGTTTTCCCGGTAATCCGTATTTGTT (site TGTGCCACTAA)	0.0457
TGTGCGGCATGGACCGGTTTTCCCGGTAATCCGTATTTGCT (site TATGCGGCTAG)	0.00771
TGTGCGGCATGGACCGGTTTTCCCGGTAATCCGTATTTGCT (site TCTGCGGCTAG)	0.00448
TGTGCGGCATGGACCGGTTTTCCCGGTAATCCGTATTTGCT (site TGTGCGGCTAG)	0.57
TGTGCGGCATGGACCGGTTTTCCCGGTAATCCGTATTTGCT (site TTTGCGGCTAG)	0.00385
TGTGGTCCATGGACCGGTTTTCCCGGTAATCCGTATTTGTC (site TGTGGTCCTGA)	0
TGTTACCCATGGACCGGTTTTCCCGGTAATCCGTATTTGTA (site TGTTACCCTTA)	0.0142
TGTTACCCATGGACCGGTTTTCCCGGTAATCCGTATTTGTA (site TGTTCCCCTTA)	0.0074

Sequence	recombinant UMI read abundance (log10)
TGTTACCCATGGACCGGTTTTCCCGGTAATCCGTATTTGTA (site TGTTGCCCTTA)	0.0124
TGTTACCCATGGACCGGTTTTCCCGGTAATCCGTATTTGTA (site TGTTTCCCTTA)	0
TGTTAGCCATGGACCGGTTTTCCCGGTAATCCGTATTTGAC (site TGTTAGCCTGT)	0
TGTTCCCCATGGACCGGTTTTCCCGGTAATCCGTATTTGCA (site TGTTCCCCTTA)	0.0177
TGTTCCCCATGGACCGGTTTTCCCGGTAATCCGTATTTGCA (site TGTTCCCCTTC)	0.0115
TGTTCCCCATGGACCGGTTTTCCCGGTAATCCGTATTTGCA (site TGTTCCCCTTG)	0.256
TGTTCCCCATGGACCGGTTTTCCCGGTAATCCGTATTTGCA (site TGTTCCCCTTT)	0.0133
TGTTCCCCATGGACCGGTTTTCCCGGTAATCCGTATTTGTA (site AGTTCCCCTTA)	0.355
TGTTCCCCATGGACCGGTTTTCCCGGTAATCCGTATTTGTA (site CGTTCCCCTTA)	0.193
TGTTCCCCATGGACCGGTTTTCCCGGTAATCCGTATTTGTA (site GGTTCCCCTTA)	0.00981
TGTTCCCCATGGACCGGTTTTCCCGGTAATCCGTATTTGTA (site TATTCCCCTTA)	0.0123
TGTTCCCCATGGACCGGTTTTCCCGGTAATCCGTATTTGTA (site TCTTCCCCTTA)	0.0139
TGTTCCCCATGGACCGGTTTTCCCGGTAATCCGTATTTGTA (site TGATCCCCTTA)	0.0165
TGTTCCCCATGGACCGGTTTTCCCGGTAATCCGTATTTGTA (site TGCTCCCCTTA)	0.377
TGTTCCCCATGGACCGGTTTTCCCGGTAATCCGTATTTGTA (site TGGTCCCCTTA)	0
TGTTCCCCATGGACCGGTTTTCCCGGTAATCCGTATTTGTA (site TGTACCCCTTA)	0.0227
TGTTCCCCATGGACCGGTTTTCCCGGTAATCCGTATTTGTA (site TGTCCCCCTTA)	0.136
TGTTCCCCATGGACCGGTTTTCCCGGTAATCCGTATTTGTA (site TGTGCCCCTTA)	0.013
TGTTCCCCATGGACCGGTTTTCCCGGTAATCCGTATTTGTA (site TGTTACCCTTA)	0.177
TGTTCCCCATGGACCGGTTTTCCCGGTAATCCGTATTTGTA (site TGTTCACCTTA)	0.00592
TGTTCCCCATGGACCGGTTTTCCCGGTAATCCGTATTTGTA (site TGTTCCACTTA)	0.0238
TGTTCCCCATGGACCGGTTTTCCCGGTAATCCGTATTTGTA (site TGTTCCCCTAA)	0.0105
TGTTCCCCATGGACCGGTTTTCCCGGTAATCCGTATTTGTA (site TGTTCCCCTCA)	0.0333
TGTTCCCCATGGACCGGTTTTCCCGGTAATCCGTATTTGTA (site TGTTCCCCTGA)	0
TGTTCCCCATGGACCGGTTTTCCCGGTAATCCGTATTTGTA (site TGTTCCCCTTA)	0.625
